Data on 20 compounds can be found in patent publication US5028629A, “5-Lipoxygenase inhibitors” (Eli Lilly and Company, priority 1990, dated 1991).

One experiment deals with T1, 5-lipoxygenase (Cavia porcellus, UniProt A0A286X958).
T1 construct: 0.2 ml of the supernatant obtained from the PMNL sonicate; endogenous in cells; host or cells: casein-elicited guinea pig peritoneal polymorphonuclear leukocytes (PMNL), sonicate, 30,000 x g supernatant
T1 sequence (A0A286X958 1-674): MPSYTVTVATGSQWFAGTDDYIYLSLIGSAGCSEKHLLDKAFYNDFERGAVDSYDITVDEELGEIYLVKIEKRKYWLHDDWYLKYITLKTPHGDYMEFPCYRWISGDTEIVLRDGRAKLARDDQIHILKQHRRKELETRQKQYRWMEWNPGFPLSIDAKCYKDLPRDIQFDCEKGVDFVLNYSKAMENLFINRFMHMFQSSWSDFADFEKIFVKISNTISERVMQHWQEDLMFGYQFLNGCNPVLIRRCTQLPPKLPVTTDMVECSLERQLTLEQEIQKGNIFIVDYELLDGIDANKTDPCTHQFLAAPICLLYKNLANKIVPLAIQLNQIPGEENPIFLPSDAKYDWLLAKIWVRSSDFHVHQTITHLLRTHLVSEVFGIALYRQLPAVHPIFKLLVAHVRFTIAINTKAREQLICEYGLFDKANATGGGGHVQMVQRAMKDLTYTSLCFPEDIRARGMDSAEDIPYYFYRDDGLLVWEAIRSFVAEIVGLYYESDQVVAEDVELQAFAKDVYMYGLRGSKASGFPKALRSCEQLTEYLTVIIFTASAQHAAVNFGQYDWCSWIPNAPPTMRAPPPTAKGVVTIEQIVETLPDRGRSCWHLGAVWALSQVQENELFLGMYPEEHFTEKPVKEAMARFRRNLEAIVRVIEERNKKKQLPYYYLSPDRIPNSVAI
Briefly: 5-Lipoxygenase (5-LO) Assay: 5-HETE formation in supernatant of guinea pig PMNL sonicate. The class given is biochemical. The protocol: Ten milliliters of a 2% casein solution is injected intraperitoneally to guinea pigs weighing 250-300 gm. After 16-18 hours, the guinea pigs are killed by suffocation in a carbon dioxide chamber. The peritoneal cavity is infused with 70 ml of saline and 40-50 ml of the fluid is recovered from the cavity. After centrifugation, cell pellets are washed twice in Hank's balanced salt solution (HBSS) without calcium ion.
The cells are then suspended in 5 ml of sodium phosphate buffer, pH 7.1 containing 1 mM, ethylene diamine tetraacetic acid (EDTA), and 0.1% gelatin. About 20-30×10^7 cells are obtained from one guinea pig.
The PMNL suspension is disrupted by five 1/2-second pulse sonication at the setting of 3 in a Branson Sonifier, Model 350, equipped with a microtip. The sonicates are combined and centrifuged at 30,000 ×g for 10 minutes. The supernatant is kept frozen at -70° C. until use.
Enzyme activity is determined by assaying for 5-hydroxy-6,8,11,14-eicosatetraenoic acid (5-HETE) formation by first incubating 0.2 ml of the supernatant obtained from the PMNL sonicate with the test compound, 1 mM CaCl2, 2 mM ATP, and 1 mM GSH for 5 minutes at 37° C. The mixture is treated with […] ^14 C-arachidonic acid and incubated at 37° C. an additional 10 minutes. The enzyme reaction is then stopped by the addition of 10 μl of 1M citric acid and 10 μl of an alcohol solution containing 20 mg/ml each of indomethacin and butylated hydroxyanisole (BHA). The reaction mixture is spotted (50 μl) on a silica gel plate (Baker TLC plate S1250-PA-19C) and subjected to TLC in a solvent system of ethyl acetate/2,2,4-trimethylpentane/glacialacetic acid/H2 O (90:50:20:100).
The radioactivity of the arachidonic acid and its metabolites (5-HETE and LTB4) is visualized from a developed x-ray film which had been exposed to the TLC plate 1-2 days. The amount of 5-HETE formed is quantitated by scraping the silica gel area corresponding to the spot on the x-ray film, and the radioactivity determined in a Isocap/300 liquid scintillation counter (Searle Analytic, Inc.).
The percent inhibition of the formation of 5-HETE is determined for each concentration of compound tested as compared to a control experiment wherein no test compound is added. The concentration and percent values are plotted on semi log paper and the concentration in which formation of 5-HETE is inhibited by 50% (IC50) is determined by interpolation.

Experiment [1] concerns polymorphonuclear leukocytes (PMNs). Nature of the experiment: H-PMN Assay: LTB4 content of supernatant of A23187-stimulated human PMNs by radioimmunoassay. The class given is cell-based. How it is done:
Sodium citrated venous blood is drawn from normal human subjects. After centrifugation at 300 ×g for 15 minutes, the platelet-rich layer of plasma is discarded and an equal volume of Hanks' balanced salt solution (HBSS) is added to the enriched cell fraction. This platelet-depleted cell suspension is then layered on an equal volume of Ficoll-Paque. After centrifugation for 40 minutes at 300 ×g, the bottom layer containing erythrocytes and polymorphonuclear leukocytes (PMNs) is diluted with two volumes of a 0.2% methocel solution. The erythrocytes are sedimented upon standing for 15 minutes, and the supernatant containing the PMNs is aspirated and centrifuged at 300 ×g, for 5 minutes. The cell pellet is then exposed to 0.2% NaCl for 30 seconds to lyse any remaining erythrocytes, and the ionic strength of the suspension is readjusted to 0.9% with NaCl. The PMNs are recovered by centrifugation at 300 ×g for 5 minutes and are suspended in HBSS to a concentration of 2 ×10^6 cells/ml.
The test compounds are dissolved in and diluted with dimethylsulfoxide (DMSO) which also contains 2×10^-6 M of the calcium ionophore, A23187. To 1 ml of the PMN suspension, 10 μl of the DMSO solution is added, and the mixture is incubated at 37° C. for 10 minutes. The PMNs are rapidly pelleted in a microcentrifuge, and the supernatant is kept at -20° C. for future determination of LTB4 content via the radioimmunoassay.

Where [2] appears, read: Table II, guinea pig PMNL sonicate supernatant, 14C-arachidonic acid, 37° C., read-out: 5-LO (concentration in which formation of 5-HETE is inhibited by 50%, IC50).
Setting [3] is: Leukocyte, 10 min, Table II, human PMNs, calcium ionophore A23187, 37° C. for 10 minutes, LTB4 by radioimmunoassay.
Setting [4] is: second table (Table III), known hydroxamic acid derivatives as comparison, read-out: 5-Lo (IC50).
The mark [5] stands for this setting: Homo sapiens, Leukocyte, second table (Table III), known hydroxamic acid derivatives as comparison.

Read-outs that look alike come from different tables or passages of the source.

Consider `C=CCCSc1ccccc1C=CC(=O)N(C)O` [Example 2], for which the IC50 on 5-lipoxygenase (setting [2]) stood at 44 nM; in experiment [1] (setting [3]), 12 nM.

`CSc1ccc(CCCc2ccccc2)cc1C=CC(=O)N(C)O` [Example 27, 2-(methylthio)-5-(3-phenylpropyl)-N-hydroxy-N-methylcinnamamide]: the IC50 at 5-lipoxygenase (setting [2]) came to 26 nM; in experiment [1] (setting [3]) it was 18 nM.

For `CCCCOc1ccccc1C=CC(=O)N(C)O` [reference compound], the results for the IC50 (on 5-lipoxygenase (setting [4]); in experiment [1] (setting [5])) were 41 nM and 52 nM, respectively.

As to `CCCCCCc1ccc(SC)c(C=CC(=O)N(C)O)c1` [Example 45, 2-methylthio-5-n-hexyl-N-hydroxy-N-methylcinnamamide], the results for the IC50 (on 5-lipoxygenase (setting [2]); in experiment [1] (setting [3])) were 58 nM and 20 nM, respectively.

Turning to `CN(O)C(=O)C=Cc1ccccc1SCc1ccccc1` [Example 31, 2-benzylthio-N-hydroxy-N-methylcinnamamide], the IC50 at 5-lipoxygenase (setting [2]) worked out at 33 nM; in experiment [1] (setting [3]), 7 nM.

Consider `CCCCSc1ccc(CCCc2ccccc2)cc1C(=O)N(C)O` [reference compound], for which the figures for the IC50 (on 5-lipoxygenase (setting [4]); in experiment [1] (setting [5])) were 178 nM and 440 nM, respectively.

For `COc1ccccc1C=CC(=O)N(C)O` [reference compound], the figures for the IC50 (at 5-lipoxygenase (setting [4]); in experiment [1] (setting [5])) were 1200 nM and 143 nM, respectively.

For the compound `CCCCc1ccccc1C=CC(=O)N(C)O` [Example 4, 2-n-butyl-N-hydroxy-N-methylcinnamamide], the figures for the IC50 (at 5-lipoxygenase (setting [2]); in experiment [1] (setting [3])) were 72 nM and 75 nM, respectively.

On to `CCCCCCc1ccc([S+](C)[O-])c(C=CC(=O)N(C)O)c1` (stereo not shown) [Example 11, 2-methylsulfinyl-5-n-hexyl-N-hydroxy-N-methylcinnamamide], for which the IC50 on 5-lipoxygenase (setting [2]) worked out at 96 nM; in experiment [1] (setting [3]), 71 nM.

Regarding `CN(O)C(=O)C=Cc1ccccc1SCCCc1ccccc1` [Example 35, 2-[1-(3-phenylpropyl)thio]-N-hydroxy-N-methylcinnamamide], the IC50 on 5-lipoxygenase (setting [2]) worked out at 9 nM; in experiment [1] (setting [3]), 16 nM.

For `CCCCCCc1cccc(C=CC(=O)N(C)O)c1S(C)(=O)=O` [Example 21, 2-methylsulfonyl-3-n-hexyl-N-hydroxy-N-methylcinnamamide], the IC50 at 5-lipoxygenase (setting [2]) came out at 166 nM; in experiment [1] (setting [3]), 461 nM.

Regarding `CCCCCCSc1ccccc1C=CC(=O)N(C)O` [Example 3, 2-n-hexylthio-N-hydroxy-N-methylcinnamamide], the results for the IC50 (at 5-lipoxygenase (setting [2]); in experiment [1] (setting [3])) were 17 nM and 9 nM, respectively.

In the case of `CCCCCCc1ccc(C=CC(=O)N(C)O)c([S+](C)[O-])c1` (stereo not shown) [Example 10, 2-methylsulfinyl-4-n-hexyl-N-hydroxy-N-methylcinnamamide], the IC50 at 5-lipoxygenase (setting [2]) was 97 nM; in experiment [1] (setting [3]), 118 nM.

Turning to `CSc1ccccc1C=CC(=O)N(C)O` [Example 23, 2-methylthio-N-hydroxy-N-methyl-cinnamamide], the IC50 was 392 nM at 5-lipoxygenase (setting [2]) and 100 nM in experiment [1] (setting [3]).

Turning to `CN(O)C(=O)C=Cc1ccccc1OCc1ccccc1` [reference compound], the IC50 was found to be 54 nM on 5-lipoxygenase (setting [4]) and 42 nM in experiment [1] (setting [5]).

With `CC(C)CSc1ccccc1C=CC(=O)N(C)O` [Example 40, 2-[1-(2-methylpropyl)thio]-N-hydroxy-N-methylcinnamamide], the figures for the IC50 (on 5-lipoxygenase (setting [2]); in experiment [1] (setting [3])) were 52 nM and 17 nM, respectively.

As for `CCCCCCc1ccc(C=CC(=O)N(C)O)c(SC)c1` [Example 19, 2-methylthio-4-n-hexyl-N-hydroxy-N-methylcinnamamide], the IC50 at 5-lipoxygenase (setting [2]) was 82 nM; in experiment [1] (setting [3]), 25 nM.

For the compound `CCCCCCc1cccc(C=CC(=O)N(C)O)c1[S+](C)[O-]` (stereo not shown) [Example 20, 2-methylsulfinyl-3-n-hexyl-N-hydroxy-N-methylcinnamamide], the IC50 stood at 459 nM at 5-lipoxygenase (setting [2]) and 190 nM in experiment [1] (setting [3]).

With “2-methylsulfonyl-4-n-hexyl-N-hydroxy-N-methylcinnamamide [Example 22]”, the IC50 on 5-lipoxygenase (setting [2]) was 148 nM; in experiment [1] (Table II, human PMNs, calcium ionophore A23187, 37° C. for 10 minutes, LTB4 by radioimmunoassay), 204 nM.

Take `CN(O)C(=O)C=Cc1ccccc1Cc1ccccc1` [Example 37, 2-benzyl-N-hydroxy-N-methylcinnamamide]: the IC50 on 5-lipoxygenase (setting [2]) came out at 53 nM; in experiment [1] (setting [3]), 28 nM.
